Measured values from patent US8431565B2 (priority 2007, dated 2013).

Tests used:
rat CB2 receptor (rCB2) = target: T1, rat CB2 receptor (rCB2) (Rattus norvegicus, UniProt Q9QZN9)
T1 sequence (Q9QZN9 1-360): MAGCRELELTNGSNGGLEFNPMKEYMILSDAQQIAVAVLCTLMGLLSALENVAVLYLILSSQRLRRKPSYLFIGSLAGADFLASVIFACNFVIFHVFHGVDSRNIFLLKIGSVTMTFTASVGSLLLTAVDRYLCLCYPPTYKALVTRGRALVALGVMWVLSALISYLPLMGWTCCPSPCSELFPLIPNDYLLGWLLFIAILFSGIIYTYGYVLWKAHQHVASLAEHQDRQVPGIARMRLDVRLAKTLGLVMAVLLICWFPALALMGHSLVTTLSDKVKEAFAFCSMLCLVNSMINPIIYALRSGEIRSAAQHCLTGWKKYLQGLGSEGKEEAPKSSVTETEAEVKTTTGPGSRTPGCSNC

Male Sprague-Dawley rats = experiment: Complete Freund's Adjuvant (CFA) model of inflammatory pain, Randall-Selitto paw pressure; format: in vivo; conditions: rat, intraperitoneal
Method: Male Sprague-Dawley rats (Hsd:Sprague-Dawley®™ SD®™, Harlan, Indianapolis, Ind.) weighing 201±1 grams, were housed three per cage. Animals had free access to food and water and were maintained on a twelve hour light/dark schedule for the entire duration of the experiment. Approximately 12 hours prior to behavioral testing, animals were placed on wire mesh bottom cages with free access to water but no access to food. Test compounds were prepared in 50% PEG-400 (Sigma-Aldrich, cat. P3265). Indomethacin (Fluka, cat 57413) was suspended in 0.5% methylcellulose (Sigma-Aldrich, cat. 274429). Groups of eight animals were anesthetized with 2-3% isoflurane and local inflammation induced by 50 μl CFA (Sigma-Aldrich, cat F5881, Mycobacterium tuberculosis 1 mg/ml) injected subcutaneously into the plantar surface of the left paw.
Assessment of mechanical hyperalgesia: Baseline and post-treatment withdrawal thresholds to a noxious mechanical stimulus were measured using the Randall-Selitto paw pressure apparatus (Ugo Basile Analgesymeter, model 7200). […] Mechanical hyperalgesia was measured using the Randall-Selitto paw pressure device before CFA injection and after intraperitoneal (i.p.) compound administration over a twenty-four-hour period. The mean and standard error of the mean (SEM) were determined for the injured and normal paws for each treatment group.

[1] = target: human CB1 receptor (hCB1) (Homo sapiens, UniProt P21554); format: cell-based
Chain of human CB1 receptor (hCB1) (P21554 whole entry): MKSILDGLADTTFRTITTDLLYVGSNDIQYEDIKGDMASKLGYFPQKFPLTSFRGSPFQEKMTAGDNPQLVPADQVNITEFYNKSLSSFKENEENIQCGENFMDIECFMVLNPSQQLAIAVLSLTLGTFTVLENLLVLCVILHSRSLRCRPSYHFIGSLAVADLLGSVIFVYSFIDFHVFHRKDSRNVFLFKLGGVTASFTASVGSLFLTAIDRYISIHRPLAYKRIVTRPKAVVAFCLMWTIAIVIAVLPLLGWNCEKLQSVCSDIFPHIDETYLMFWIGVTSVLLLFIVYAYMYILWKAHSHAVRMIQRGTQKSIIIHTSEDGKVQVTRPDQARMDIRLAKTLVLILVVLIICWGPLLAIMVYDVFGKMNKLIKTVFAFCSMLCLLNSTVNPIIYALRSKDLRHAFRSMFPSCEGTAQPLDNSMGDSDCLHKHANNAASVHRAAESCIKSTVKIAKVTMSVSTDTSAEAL

rats [2] = experiment: Spinal nerve ligation (SNL) model of neuropathic pain; format: in vivo; conditions: rat; oral 3, 10 and 30 mg/kg; FIG. 4
Method: The SNL model (Kim and Chung 1992) was used to induce chronic neuropathic pain in rats. The rats were anesthetized with isoflurane, the left L5 transverse process was removed, and the L5 and L6 spinal nerves were tightly ligated with 6-0 silk suture. The wound was then closed with internal sutures and external staples. Following at least seven days post SNL, baseline, post-injury and post-treatment values for non-noxious mechanical sensitivity were evaluated using eight Semmes-Weinstein filaments (Stoelting, Wood Dale, Ill., USA) with varying stiffness (0.4, 0.7, 1.2, 2.0, 3.6, 5.5, 8.5, and 15 g) according to the up-down method (Chaplan et al. 1994). Animals were placed on a perforated metallic platform and allowed to acclimate to their surroundings for a minimum of thirty minutes before testing. The mean and standard error of the mean (SEM) were determined for the injured paw in each treatment group. Since this stimulus is normally not considered painful, significant injury-induced increases in responsiveness in this test are interpreted as a measure of mechanical allodynia. The dose which elicited 50% attenuation of mechanical hypersensitivity (ED50) was determined using linear regression analysis. Results obtained after oral administration of compound 317 at 3, 10 and 30 mg/kg and with compound 366 at 1, 3 and 10 mg/kg are shown in FIG. 4.

rats [3] = experiment: Carrageenan model of acute inflammation; format: in vivo; conditions: rat
Male ICR mice = experiment: Inhibition of acetic acid-induced writhing; format: in vivo, mouse; conditions: subcutaneous 3, 10 and 30 mg/kg, FIG. 2
Excerpt: 12: 525-562; Ramabadran and Bansinath (1986) Pharm. Res. 3: 263-270]. Intraperitoneal administration of dilute acetic acid solution causes a writhing behavior in mice. A writhe is defined as a contraction of the abdominal muscles accompanied by an extension of the forelimbs and elongation of the body. The number of writhes observed in the presence and absence of test compounds is counted to determine the analgesic activity of the compounds.
Male ICR mice, 20-40 grams in weight, were weighed and placed in individual observation chambers (usually a 4000 ml beaker) with a fine layer of rodent bedding at the bottom. To determine the activity and potency of test compounds, different doses of the compound solution or vehicle were injected subcutaneously in the back of the neck 30 minutes prior to administration of acetic acid solution. After administration of the compound or vehicle control, mice were returned to their individual observation chambers awaiting the intraperitoneal administration of acetic acid solution. Thirty minutes later, 10 ml/kg of a 0.6% (v/v) acetic acid solution was then injected into the right lower quadrant of the abdomen. […] The number of writhes was counted over a 15-min period starting from the time of acetic acid injection. Raw data were analyzed using a one-way ANOVA followed by Dunnett's post-tests. […]

CCS(=O)(=O)N1CCn2c(-c3ccccc3)nc(C(=O)N[C@H](C(=O)NC)C(C)(C)C)c2C1 [Compound 91, (S)—N-(3,3-dimethyl-1-(methylamino)-1-oxobutan-2-yl)-7-(ethylsulfonyl)-3-phenyl-5,6,7,8-tetrahydroimidazo[1,5-a]pyrazine-1-carboxamide]
EC50 (rat CB2 receptor (rCB2)): 0.01 to 0.1 µM | side effects during the experiment (Male Sprague-Dawley rats; CFA experiment): No side effects were observed | effect on paw withdrawal threshold after intrapaw CFA (Male Sprague-Dawley rats; vs vehicle over twenty-four hours, FIG. 1): anti-hyperalgesic effect

CN1CCn2c(-c3ccc(Cl)cc3F)nc(C(=O)N3CCC4(CCNC4=O)CC3)c2C1 [Compound 220, 8-(3-(4-chloro-2-fluorophenyl)-7-methyl-5,6,7,8-tetrahydroimidazo[1,5-a]pyrazine-1-carbonyl)-2,8-diazaspiro[4.5]decan-1-one]
EC50 (rat CB2 receptor (rCB2)): > 10 µM | EC50 [1]: > 10 µM

CNC(=O)[C@@H](NC(=O)c1nc(-c2ccccc2)n2c1CN(C)CCC2)C(C)(C)C [Compound 317, (S)—N-(3,3-dimethyl-1-(methylamino)-1-oxobutan-2-yl)-8-methyl-3-phenyl-6,7,8,9-tetrahydro-5H-imidazo[1,5-a][1,4]diazepine-1-carboxamide]
response in the neuropathic pain model (rats [2]): dose response in the neuropathic pain model | inhibition of carrageenan-induced hyper-sensitivity (rats [3]; sub-cutaneous 3, 10 and 30 mg/kg, FIG. 3A): dose response in the inhibition of carrageenan-induced hyper-sensitivity | inhibition of acetic acid-induced writhing (Male ICR mice): dose response in the inhibition of acetic acid-induced writhing

CNC(=O)[C@@H](NC(=O)c1nc(-c2ccc3c(c2)OCCO3)n2c1CN(C)CCC2)C(C)(C)C [Compound 326, (S)-3-(2,3-dihydrobenzo[b][1,4]dioxin-6-yl)-N-(3,3-dimethyl-1-(methylamino)-1-oxobutan-2-yl)-8-methyl-6,7,8,9-tetrahydro-5H-imidazo[1,5-a][1,4]diazepine-1-carboxamide]
EC50 (rat CB2 receptor (rCB2)): 0.01 to 0.1 µM | EC50 [1]: > 10 µM

CNC(=O)[C@@H](NC(=O)c1nc(-c2ccc(Cl)cc2F)n2c1CN(C)CCC2)C(C)(C)C [Compound 366, (S)-3-(4-chloro-2-fluorophenyl)-N-(3,3-dimethyl-1-(methylamino)-1-oxobutan-2-yl)-8-methyl-6,7,8,9-tetrahydro-5H-imidazo[1,5-a][1,4]diazepine-1-carboxamide]
response in the neuropathic pain model (rats [2]): dose response in the neuropathic pain model | inhibition of carrageenan-induced hyper-sensitivity (rats [3]; oral 1, 3 and 10 mg/kg, FIG. 3B): dose response in the inhibition of carrageenan-induced hyper-sensitivity | inhibition of acetic acid-induced writhing (Male ICR mice): dose response in the inhibition of acetic acid-induced writhing

CN1CCCn2c(-c3cc(F)c(F)cc3F)nc(C(=O)N3CCOCC3)c2C1 [Compound 859, (8-methyl-3-(2,4,5-trifluorophenyl)-6,7,8,9-tetrahydro-5H-imidazo[1,5-a][1,4]diazepin-1-yl)(morpholino)methanone]
EC50 [1]: > 10 µM

CN1CCCn2c(-c3cc(Cl)c(F)cc3F)nc(C(=O)NC3(C(=O)N4CC(F)(F)C4)CC3)c2C1 [Compound 873, 3-(5-chloro-2,4-difluorophenyl)-N-(1-(3,3-difluoroazetidine-1-carbonyl)cyclopropyl)-8-methyl-6,7,8,9-tetrahydro-5H-imidazo[1,5-a][1,4]diazepine-1-carboxamide]
EC50 [1]: > 10 µM

CN1CCN(CC(C)(C)NC(=O)c2nc(-c3cc(Cl)c(F)cc3F)n3c2CN(C)CCC3)CC1 [Compound 879, 3-(5-chloro-2,4-difluorophenyl)-8-methyl-N-(2-methyl-1-(4-methylpiperazin-1-yl)propan-2-yl)-6,7,8,9-tetrahydro-5H-imidazo[1,5-a][1,4]diazepine-1-carboxamide]
EC50 [1]: > 10 µM

CC1CCN(CC(C)(C)NC(=O)c2nc(-c3cc(Cl)c(F)cc3F)n3c2CN(C)CCC3)CC1 [Compound 880, 3-(5-chloro-2,4-difluorophenyl)-8-methyl-N-(2-methyl-1-(4-methylpiperidin-1-yl)propan-2-yl)-6,7,8,9-tetrahydro-5H-imidazo[1,5-a][1,4]diazepine-1-carboxamide]
EC50 [1]: > 10 µM

CNC(=O)C1(NC(=O)c2nc(-c3cc(Cl)c(F)cc3F)n3c2CN(C)CCC3)CC1 [Compound 905, 3-(5-chloro-2,4-difluorophenyl)-8-methyl-N-(1-(methylcarbamoyl)cyclopropyl)-6,7,8,9-tetrahydro-5H-imidazo[1,5-a][1,4]diazepine-1-carboxamide]
EC50 [1]: > 10 µM

CN1CCCn2c(-c3cc(Cl)c(F)cc3F)nc(C(=O)N3CC[C@H](O)C3)c2C1 [Compound 910, (S)-(3-(5-chloro-2,4-difluorophenyl)-8-methyl-6,7,8,9-tetrahydro-5H-imidazo[1,5-a][1,4]diazepin-1-yl)(3-hydroxypyrrolidin-1-yl)methanone]
EC50 [1]: > 10 µM
